Test results: PMC9329436, “Optimization of the 4-anilinoquin(az)oline scaffold as epidermal growth factor receptor (EGFR) inhibitors for chordoma utilizing a toxicology profiling assay platform” (Scientific Reports, 2022)
Like-named read-outs stand apart in the source and are kept apart here.

Tests used:
Assay type in all cases: biochemical
[1] = biological target: T1, 320 wild-type protein kinases (Homo sapiens, UniProt Q05513); conditions: PKC-zeta, singlicate
T1 sequence (Q05513 1-592): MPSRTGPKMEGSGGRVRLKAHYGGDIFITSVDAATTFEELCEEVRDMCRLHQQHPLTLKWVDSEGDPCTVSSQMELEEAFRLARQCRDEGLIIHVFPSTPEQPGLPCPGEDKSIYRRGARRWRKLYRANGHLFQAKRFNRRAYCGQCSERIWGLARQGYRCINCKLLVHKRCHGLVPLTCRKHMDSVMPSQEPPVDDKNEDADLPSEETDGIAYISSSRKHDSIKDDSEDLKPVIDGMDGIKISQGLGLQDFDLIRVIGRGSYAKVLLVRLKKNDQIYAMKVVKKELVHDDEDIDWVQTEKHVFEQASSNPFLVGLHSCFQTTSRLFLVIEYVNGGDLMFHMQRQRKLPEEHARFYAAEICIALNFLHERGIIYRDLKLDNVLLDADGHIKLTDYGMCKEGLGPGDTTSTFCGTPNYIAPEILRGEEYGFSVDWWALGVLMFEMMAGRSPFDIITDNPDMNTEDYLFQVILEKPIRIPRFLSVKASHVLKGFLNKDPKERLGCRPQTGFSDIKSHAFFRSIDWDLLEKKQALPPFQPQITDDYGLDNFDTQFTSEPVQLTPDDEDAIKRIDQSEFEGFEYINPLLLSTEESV
Description: (§1) Table S4. Profiling of two compounds at two concentrations against 320 wild-type protein kinases; singlicate measurement; Residual activities (% of control).

[2] = biological target: 320 wild-type protein kinases (Homo sapiens, UniProt Q9P0L2); conditions: singlicate
Description: as §1

[3] = biological target: T2, 320 wild-type protein kinases (Homo sapiens, UniProt O14920); conditions: IKK-beta, singlicate
T2 sequence (O14920 1-756): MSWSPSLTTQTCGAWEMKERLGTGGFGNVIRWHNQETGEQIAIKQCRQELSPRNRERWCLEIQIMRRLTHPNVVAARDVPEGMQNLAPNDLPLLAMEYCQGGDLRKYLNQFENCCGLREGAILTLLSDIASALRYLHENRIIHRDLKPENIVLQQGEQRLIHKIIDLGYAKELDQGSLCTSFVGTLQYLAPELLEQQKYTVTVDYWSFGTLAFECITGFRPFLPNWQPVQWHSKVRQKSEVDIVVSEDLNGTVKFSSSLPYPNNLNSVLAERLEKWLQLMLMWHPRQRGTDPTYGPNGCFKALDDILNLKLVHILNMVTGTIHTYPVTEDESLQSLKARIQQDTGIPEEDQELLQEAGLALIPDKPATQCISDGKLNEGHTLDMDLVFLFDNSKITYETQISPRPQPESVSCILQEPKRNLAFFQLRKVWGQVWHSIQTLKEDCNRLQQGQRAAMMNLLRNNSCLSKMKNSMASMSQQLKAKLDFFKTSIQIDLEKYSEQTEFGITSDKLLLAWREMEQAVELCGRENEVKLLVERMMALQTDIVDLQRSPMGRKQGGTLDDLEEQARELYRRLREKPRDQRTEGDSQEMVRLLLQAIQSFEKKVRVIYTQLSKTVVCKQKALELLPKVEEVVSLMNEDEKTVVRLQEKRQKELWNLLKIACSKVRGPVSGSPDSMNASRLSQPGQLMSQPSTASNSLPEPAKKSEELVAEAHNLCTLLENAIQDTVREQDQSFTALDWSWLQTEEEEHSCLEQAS
Description: as §1

[4] = biological target: 320 wild-type protein kinases (Homo sapiens, UniProt P04049, Y340D/Y341D); conditions: kinase RAF1 Y340D/Y341D (untagged), singlicate
Description: as §1

[5] = biological target: T3, 320 wild-type protein kinases (Homo sapiens, UniProt Q9UL54); conditions: kinase TAOK2, singlicate
T3 sequence (Q9UL54 1-1235): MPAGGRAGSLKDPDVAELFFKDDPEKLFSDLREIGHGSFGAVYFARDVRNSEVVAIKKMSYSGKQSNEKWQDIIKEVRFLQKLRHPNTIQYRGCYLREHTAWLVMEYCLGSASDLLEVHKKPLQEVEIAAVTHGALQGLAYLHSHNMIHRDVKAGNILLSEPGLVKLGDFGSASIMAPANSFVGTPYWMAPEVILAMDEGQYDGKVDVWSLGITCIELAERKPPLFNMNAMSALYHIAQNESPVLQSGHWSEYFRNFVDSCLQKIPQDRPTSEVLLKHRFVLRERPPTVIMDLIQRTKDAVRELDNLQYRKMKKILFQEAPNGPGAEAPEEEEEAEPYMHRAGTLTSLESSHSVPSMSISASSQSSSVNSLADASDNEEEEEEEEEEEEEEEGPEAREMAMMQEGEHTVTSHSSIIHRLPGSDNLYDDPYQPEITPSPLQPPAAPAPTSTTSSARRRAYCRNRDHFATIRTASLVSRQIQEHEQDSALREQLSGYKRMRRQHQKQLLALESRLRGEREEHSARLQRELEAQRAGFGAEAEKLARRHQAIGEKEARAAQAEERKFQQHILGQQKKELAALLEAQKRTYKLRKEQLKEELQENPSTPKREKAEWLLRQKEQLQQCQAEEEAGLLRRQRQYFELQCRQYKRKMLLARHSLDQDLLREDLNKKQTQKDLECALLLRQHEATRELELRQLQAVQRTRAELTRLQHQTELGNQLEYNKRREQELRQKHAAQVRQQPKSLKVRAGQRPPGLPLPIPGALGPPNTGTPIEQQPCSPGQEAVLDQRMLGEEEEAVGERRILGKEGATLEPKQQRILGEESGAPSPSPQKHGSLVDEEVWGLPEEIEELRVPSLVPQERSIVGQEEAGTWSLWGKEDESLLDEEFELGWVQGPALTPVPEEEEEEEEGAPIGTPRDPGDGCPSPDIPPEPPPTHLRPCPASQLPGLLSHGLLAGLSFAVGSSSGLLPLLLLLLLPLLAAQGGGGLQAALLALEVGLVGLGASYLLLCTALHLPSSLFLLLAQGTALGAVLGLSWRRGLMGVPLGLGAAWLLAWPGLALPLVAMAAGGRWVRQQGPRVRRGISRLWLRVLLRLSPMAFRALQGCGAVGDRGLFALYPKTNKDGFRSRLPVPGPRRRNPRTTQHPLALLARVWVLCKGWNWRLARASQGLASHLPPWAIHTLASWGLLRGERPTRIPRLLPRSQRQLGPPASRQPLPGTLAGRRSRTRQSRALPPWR
Description: as §1

[6] = biological target: 320 wild-type protein kinases (Homo sapiens, UniProt Q9Y6M4); conditions: singlicate
Description: as §1

Sequence of 320 wild-type protein kinases (Homo sapiens, UniProt Q9P0L2) (Q9P0L2 whole entry): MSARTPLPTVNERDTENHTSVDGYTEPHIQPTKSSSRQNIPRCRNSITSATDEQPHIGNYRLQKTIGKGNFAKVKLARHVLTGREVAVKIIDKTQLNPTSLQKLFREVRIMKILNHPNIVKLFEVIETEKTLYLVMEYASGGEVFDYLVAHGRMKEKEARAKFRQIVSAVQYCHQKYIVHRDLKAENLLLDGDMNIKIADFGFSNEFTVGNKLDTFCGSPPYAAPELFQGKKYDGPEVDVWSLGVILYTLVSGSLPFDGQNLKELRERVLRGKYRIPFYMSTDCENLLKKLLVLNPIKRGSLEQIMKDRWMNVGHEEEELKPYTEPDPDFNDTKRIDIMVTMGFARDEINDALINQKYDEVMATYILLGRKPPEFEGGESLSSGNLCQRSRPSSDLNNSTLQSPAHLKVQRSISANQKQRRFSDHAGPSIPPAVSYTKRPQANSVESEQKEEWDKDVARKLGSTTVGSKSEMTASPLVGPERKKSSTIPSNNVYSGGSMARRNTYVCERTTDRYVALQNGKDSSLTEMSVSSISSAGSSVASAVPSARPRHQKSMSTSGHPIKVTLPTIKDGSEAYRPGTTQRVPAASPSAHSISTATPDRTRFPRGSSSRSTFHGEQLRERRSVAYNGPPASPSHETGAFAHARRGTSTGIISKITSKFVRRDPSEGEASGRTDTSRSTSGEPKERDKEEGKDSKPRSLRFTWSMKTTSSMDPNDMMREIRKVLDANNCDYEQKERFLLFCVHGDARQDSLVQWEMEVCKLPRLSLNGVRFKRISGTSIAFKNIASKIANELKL
Sequence of 320 wild-type protein kinases (Homo sapiens, UniProt Q9Y6M4) (Q9Y6M4 whole entry): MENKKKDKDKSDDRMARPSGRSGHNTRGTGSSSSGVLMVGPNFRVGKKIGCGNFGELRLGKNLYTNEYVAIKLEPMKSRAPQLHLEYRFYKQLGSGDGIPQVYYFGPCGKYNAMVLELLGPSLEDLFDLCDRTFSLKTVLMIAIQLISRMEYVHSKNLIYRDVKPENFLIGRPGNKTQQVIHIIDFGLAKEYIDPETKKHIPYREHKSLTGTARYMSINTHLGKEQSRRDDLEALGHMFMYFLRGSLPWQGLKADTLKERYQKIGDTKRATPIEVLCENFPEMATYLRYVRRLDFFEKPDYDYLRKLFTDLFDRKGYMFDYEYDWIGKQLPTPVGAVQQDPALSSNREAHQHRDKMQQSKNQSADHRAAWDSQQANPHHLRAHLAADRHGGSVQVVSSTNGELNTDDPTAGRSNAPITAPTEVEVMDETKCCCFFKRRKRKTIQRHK

Row | SMILES | Residual activity ([1]; 1.0E-06 M) | Residual activity ([1]; 1.0E-07 M) | Residual activity ([2]; MARK1, 1.0E-06 M) | Residual activity ([2]; MARK1, 1.0E-07 M) | Residual activity ([3]; 1.0E-06 M) | Residual activity ([3]; 1.0E-07 M) | Residual activity, RAF1 Y340D/Y341D (untagged) ([4]; assay conc. 1.0E-06 M) | Residual activity, RAF1 Y340D/Y341D (untagged) ([4]; assay conc. 1.0E-07 M) | Residual activity, TAOK2 ([5]; assay conc. 1.0E-06 M) | Residual activity, TAOK2 ([5]; assay conc. 1.0E-07 M) | Residual activity ([6]; CK1-gamma3, 1.0E-06 M) | Residual activity ([6]; CK1-gamma3, 1.0E-07 M)
1 | C#Cc1cc(Nc2ncnc3cc(I)ccc23)ccc1Cl [Compound 41] | 76 % of control | 87 % of control | 85 % of control | 94 % of control | 124 % of control | 199 % of control | 99 % of control | 95 % of control | 96 % of control | 110 % of control | 118 % of control | 121 % of control
2 | C#Cc1cc(Nc2ncnc3cc(OC)c(OC)cc23)ccc1Cl [Compound 45] | 85 % of control | 73 % of control | 93 % of control | 93 % of control | 107 % of control | 121 % of control | 88 % of control | 83 % of control | 106 % of control | 109 % of control | 123 % of control | 116 % of control
